According to ChEMBL document CHEMBL1131608, “Structure-activity relationships and molecular modeling of 3, 5-diacyl-2,4-dialkylpyridine derivatives as selective A3 adenosine receptor antagonists” (J Med Chem, 1998):

Key:
[1] = molecular target: T1, Adenosine receptor A1 (Rattus norvegicus) (UniProt P25099); assay: Binding affinity towards adenosine A1 receptor by measuring its ability to displace [3H]-R-PIA in rat brain membranes at a concentration of 10e-4 M; assay type: cell membranes
T1 sequence (whole entry): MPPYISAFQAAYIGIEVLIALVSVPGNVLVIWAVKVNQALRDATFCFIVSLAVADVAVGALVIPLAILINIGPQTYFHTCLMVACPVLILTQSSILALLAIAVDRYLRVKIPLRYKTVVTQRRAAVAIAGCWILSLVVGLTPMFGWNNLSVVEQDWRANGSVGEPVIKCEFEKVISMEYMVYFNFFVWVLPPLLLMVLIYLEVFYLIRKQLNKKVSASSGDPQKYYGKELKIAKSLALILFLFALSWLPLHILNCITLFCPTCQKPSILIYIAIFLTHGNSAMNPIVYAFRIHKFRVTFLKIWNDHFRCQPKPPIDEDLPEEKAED

[2] = molecular target: Adenosine receptor A2a (Rattus norvegicus) (UniProt P30543); assay: Binding affinity for adenosine A2A receptor as displacement of [3H]-CGS- 21680 from rat striatal membranes at 10e-4 M; assay type: cell membranes; settings: Membrane
[3] = molecular target: Adenosine receptor A2a (Rattus norvegicus) (UniProt P30543); assay: Binding affinity towards adenosine A2A receptor by measuring its ability to displace [3H]-CGS- 21680 in rat striatal membranes at a concentration of 10e-4 M; assay type: cell membranes; settings: Striatum, Membrane
[4] = molecular target: T2, Adenosine receptor A3 (Homo sapiens) (UniProt P0DMS8); assay: Binding affinity towards adenosine A3 receptor by measuring its ability to displace [125I]AB-MECA binding to membranes prepared from HEK293 cells; assay type: cell membranes
T2 sequence (whole entry): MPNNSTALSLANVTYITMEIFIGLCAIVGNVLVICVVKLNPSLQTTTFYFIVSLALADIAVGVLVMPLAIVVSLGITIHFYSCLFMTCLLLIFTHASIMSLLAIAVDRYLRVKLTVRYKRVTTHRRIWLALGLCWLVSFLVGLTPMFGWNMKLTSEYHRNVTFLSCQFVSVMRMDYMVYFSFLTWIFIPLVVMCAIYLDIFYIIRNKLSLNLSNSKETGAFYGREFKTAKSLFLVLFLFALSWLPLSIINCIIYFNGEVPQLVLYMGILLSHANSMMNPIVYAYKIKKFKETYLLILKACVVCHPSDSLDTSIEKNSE

HEK293 = assay: Selectivity for binding affinity towards A1 adenosine receptor in rat brain membrane and human A3 receptor expressed in HEK cells; assay type: cell-based
Adenosine receptor A2a [5] = molecular target: T3, Adenosine receptor A2a (Rattus norvegicus, UniProt P30543); assay: Binding affinity for adenosine A2A receptor as displacement of [3H]-CGS- 21680 from rat striatal membranes; assay type: cell membranes, Membrane
Adenosine receptor A1 [6] = molecular target: T4, Adenosine receptor A1 (Rattus norvegicus, UniProt P25099); assay: Binding affinity for adenosine A1 receptor as displacement of [3H]R-PIA from rat brain membranes; assay type: cell membranes, Membrane
T4 sequence (P25099 whole entry): T1 sequence (whole entry)

[7] = molecular target: T2, Adenosine receptor A3 (Homo sapiens); assay: Binding affinity for adenosine A3 receptor as displacement of [125I]AB-MECA from HEK293 cell membranes at 10e-4 M
Adenosine receptor A1 [8] = molecular target: T4, Adenosine receptor A1; assay: Binding affinity for adenosine A1 receptor as displacement of [3H]R-PIA from rat brain membranes at 10e-4 M; assay type: cell membranes, Membrane
Adenosine receptor A2a [9] = molecular target: T3, Adenosine receptor A2a

Sequence of Adenosine receptor A2a (Rattus norvegicus) (P30543 whole entry): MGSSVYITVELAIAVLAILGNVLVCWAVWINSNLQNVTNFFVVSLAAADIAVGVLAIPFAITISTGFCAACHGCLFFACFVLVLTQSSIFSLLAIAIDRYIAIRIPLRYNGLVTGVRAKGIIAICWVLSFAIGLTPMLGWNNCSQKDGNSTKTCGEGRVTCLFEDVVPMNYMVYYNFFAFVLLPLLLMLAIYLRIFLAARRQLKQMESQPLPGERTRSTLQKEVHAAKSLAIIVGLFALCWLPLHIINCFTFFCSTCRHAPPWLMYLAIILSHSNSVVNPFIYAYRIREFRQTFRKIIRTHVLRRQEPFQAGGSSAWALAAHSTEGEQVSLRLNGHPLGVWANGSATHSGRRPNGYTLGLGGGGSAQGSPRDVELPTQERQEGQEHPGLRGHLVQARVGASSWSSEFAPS
T3 sequence (P30543 whole entry): as above

Compound | inhibition [1] [%] | inhibition [3] [%] | Ki [4] [µM] | Ratio (HEK293) | other results
CCCC1C(C(=O)OCC)=C(c2ccccc2)N=C(C)/C1=C(/O)SCC (centres undefined) | 48 |  |  |  | inhibition [2]: 29%
CCOC(=O)c1c(-c2ccccc2)nc(C2CCC2)c(C(=O)SCC)c1CC | 30 | 22 | 0.145 | > 500 | 
CCSC(=O)c1c(CC)nc(-c2ccccc2)c(C(=O)OCCO)c1CC | 17.4 | 10 | 0.188 | 93 | 
CCCOC(=O)c1c(-c2ccccc2)nc(CC)c(C(=O)SCC)c1CCC | 15.6 | 2.05 | 0.0189 | 830 | 
CCCOC(=O)c1c(C)nc(-c2ccccc2)c(C(=O)OCC)c1C | 5.05 | 24.5 | 0.215 | 23 | 
CCOC(=O)c1c(-c2ccccc2)nc(C)c(C(=O)SCCOC)c1CC | 36 | 7.98 | 0.165 | > 500 | 
CCCO/C(O)=C1\C(C)=NC(c2ccccc2)=C(C(=O)OCC)C1C (centres undefined) |  |  |  |  | Ki (Adenosine receptor A2a [5]): 28.9 µM; Ki (Adenosine receptor A1 [6]): 17.4 µM
CCCc1c(C(=O)SCC)c(C)nc(-c2ccccc2)c1C(=O)OCC | 29 | 7.53 | 0.194 | > 700 | 
CCOC(=O)C1=C(c2ccccc2)N=C(CC)/C(=C(/O)OCC)C1C (centres undefined) | 20 |  |  |  | inhibition [2]: < 10%
CCCOC(=O)c1c(-c2ccccc2)nc(CC)c(C(=O)SCC)c1CC | 7.77 | < 10 | 0.00829 | 940 | 
CCOC(=O)c1c(C)nc(-c2ccccc2)c(C(=O)OCC)c1C(OC)OC | 1.95 | 2.88 | 0.783 | 2.5 | 
CCOC(=O)C1=C(c2ccccc2)N=C(C)/C(=C(/O)SCC)C1CC (centres undefined) | 35.4 | 54.8 |  |  | 
CCSC(=O)c1c(C)nc(-c2ccccc2)c(C(=O)Oc2ccccc2)c1CC | 20 | 12.8 | 2.61 | > 40 | 
CCOC(=O)C1=C(c2ccccc2)N=C(CC)/C(=C(/O)SCC)C1CC (centres undefined) | 34 | 29.1 | 0.907 | > 50 | 
CCOC(=O)C1=C(C)NC(C2CCCC2)=C(C(=O)OCc2ccccc2)C1C#Cc1ccccc1 (centres undefined) |  |  |  | 340 | 
CCOC(=O)C1=C(C)NC(C2CCC2)=C(C(=O)OCc2ccccc2)C1C#Cc1ccccc1 (centres undefined) | 36 |  |  |  | inhibition [2]: 10%
CCOC(=O)c1c(C)nc(-c2ccccc2)c(C(=O)OCc2ccccc2)c1C#Cc1ccccc1 |  |  |  | 4.2 | Ki (Adenosine receptor A2a [5]): 43 µM; inhibition [7]: 2.75%
CCOC(=O)c1c(C)nc(C2CCC2)c(C(=O)OCc2ccccc2)c1C#Cc1ccccc1 | < 10 |  |  |  | 
CCCC1=NC(c2ccccc2)=C(C(=O)OCC)C(CC)/C1=C(\O)SCC (centres undefined) | 26 | < 10 | 2.09 | > 20 | 
CCOC(=O)c1c(C)nc(-c2ccccc2)c(C(=O)OCC)c1CC | 3.36 | 3.69 | 0.176 | 19 | 
CCOC(=O)c1c(C)nc(-c2ccccc2)c(C(=O)OCC)c1C |  | 28.4 |  |  | 
CCOC(=O)C1=C(C)NC(C2CC2)=C(C(=O)OCc2ccccc2)C1C#Cc1ccccc1 (centres undefined) | 22 |  |  |  | inhibition [2]: 10%
CCOC(=O)C1=C(c2ccccc2)N=C(C)/C(=C(/O)OCC)C1C(OC)OC (centres undefined) | 32 | < 10 | 15.3 | > 5 | 

Compound | inhibition [1] [%] | inhibition [3] [%] | Ki [4] [µM] | Ratio (HEK293) | other results
CCS/C(O)=C1\C(C)=NC(c2ccccc2)=C(C(=O)OCc2ccccc2)C1CC (centres undefined) | 45 |  | 1.65 | > 50 | inhibition [2]: 14.3%
CCOC(=O)c1c(-c2cccc(Cl)c2)nc(CC)c(C(=O)SCC)c1CC | 8.2 | 8.91 | 0.0134 | 610 | 
CCOC(=O)c1c(C2CCCC2)nc(CC)c(C(=O)SCC)c1CC | 55.3 | 26.1 | 3.38 | 16 | 
CCCSC(=O)c1c(CC)nc(-c2ccccc2)c(C(=O)OCC)c1CC | 8.22 | 15.7 | 0.0159 | 520 | 
CCO/C(O)=C1\C(C)=NC(c2ccccc2)=C(C(=O)OCc2ccccc2)C1C#Cc1ccccc1 (centres undefined) |  | < 10 |  |  | 
CCOC(=O)c1c(-c2ccccc2)nc(CC)c(C(=O)O)c1CC | 4.25 | 7.09 | 1.28 | 3.3 | 
CCOC(=O)C1=C(c2ccccc2)N=C(C)/C(=C(/O)OCC)C1/C=C/c1ccccc1 (centres undefined) |  | 4.77 |  |  | 
CCCCc1nc(-c2ccccc2)c(C(=O)OCC)c(CC)c1C(=O)SCC | 40.3 | < 10 | 0.035 | 1200 | 
CCOC(=O)C1=C(c2ccccc2)N=C(C)/C(=C(/O)SCCOC)C1CC (centres undefined) | 36 |  | 4.58 | > 10 | inhibition [2]: 12.5%
CCOC(=O)c1c(-c2ccccc2)nc(CCOC)c(C(=O)SCC)c1CC | 10.1 | 12.6 | 0.0168 | 600 | 
CCOC(=O)c1c(-c2ccccc2)nc(C)c(C(=O)SCC)c1CC | 14.8 | 14.9 | 0.143 | 340 | 
CCOC(=O)c1c(C)nc(C2CCCC2)c(C(=O)OCc2ccccc2)c1C#Cc1ccccc1 |  |  |  | 15 | 
CCCOC(=O)c1c(-c2cccc(Cl)c2)nc(CC)c(C(=O)SCCC)c1CC | 41.4 | 24.1 | 0.00794 | 5200 | 
CCOC(=O)C1=C(c2ccccc2)N=C(C)/C(=C(/O)OCC)C1CC (centres undefined) |  |  |  |  | Ki (Adenosine receptor A2a [5]): 21.8 µM
CCOC(=O)C1=C(C)NC(C2CCCCC2)=C(C(=O)OCc2ccccc2)C1C#Cc1ccccc1 (centres undefined) | 22 |  |  |  | inhibition [2]: 20%
CCOC(=O)c1c(-c2ccccc2)nc(CC)c(C(=O)SCC)c1CC | 41 | 6.13 | 0.02 | > 3000 | 
CCOC(=O)C1=C(c2ccccc2)N=C(C)/C(=C(/O)OCC)C1C=O (centres undefined) | 26 | 32 | 15.6 | 6 | 
CNC(=O)[C@H]1O[C@@H](n2cnc3c(NCc4ccc(N)c(I)c4)ncnc32)[C@H](O)[C@@H]1O |  |  |  |  | Ki (Adenosine receptor A1 [8]): 0.0034 µM
CCOC(=O)c1c(CC)nc(-c2ccccc2)c(C(=O)OCC)c1C | 10.3 | 13.4 | 0.121 | 85 | 
CCO/C(O)=C1\C(C)=NC(c2ccccc2)=C(C(=O)OCc2ccc([N+](=O)[O-])cc2)C1C#Cc1ccccc1 (centres undefined) |  |  |  |  | Ki (Adenosine receptor A1 [8]): > 100 µM; Ki (Adenosine receptor A2a [9]): > 100 µM
CCOC(=O)c1c(C)nc(-c2ccccc2)c(C(=O)OCC)c1C=O | 9.56 | 2.56 | 1.98 | 4.8 | 
CCCc1nc(-c2ccccc2)c(C(=O)OCC)c(CC)c1C(=O)SCC | 16.7 | 2.82 | 0.0333 | 500 | 
